Test results reported in patent US11590116B2 (THERAVANCE BIOPHARMA R&D IP, LLC, priority 2019, dated 2023).

Tests used:
[1] = molecular target: T1, recombinant human ALK5 (TGF-βR1) protein (Homo sapiens, UniProt P36897); experiment: Biochemical ALK5 (TGF-βR1) assay to measure pKi (LANCE Ultra ULight kinase assay); settings: apparent pKi from pIC50 by Cheng-Prusoff, read-out: ALK5 pKi (converted)
T1 construct: purchased Life Technologies PR9075A
T1 sequence (P36897 34-503): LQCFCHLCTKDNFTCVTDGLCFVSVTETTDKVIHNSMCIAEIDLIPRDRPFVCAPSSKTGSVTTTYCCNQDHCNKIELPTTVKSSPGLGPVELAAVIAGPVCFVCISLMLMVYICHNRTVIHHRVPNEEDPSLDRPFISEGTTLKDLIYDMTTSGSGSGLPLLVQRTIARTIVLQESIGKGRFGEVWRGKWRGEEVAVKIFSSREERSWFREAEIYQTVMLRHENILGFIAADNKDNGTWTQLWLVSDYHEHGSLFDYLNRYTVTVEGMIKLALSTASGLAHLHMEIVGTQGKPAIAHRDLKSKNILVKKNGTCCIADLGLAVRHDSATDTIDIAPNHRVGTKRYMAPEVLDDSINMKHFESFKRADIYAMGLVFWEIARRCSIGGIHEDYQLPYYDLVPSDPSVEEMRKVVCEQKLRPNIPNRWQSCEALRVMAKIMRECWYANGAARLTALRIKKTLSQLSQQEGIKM
In short: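 Compounds (10 μM to 25 pM) were preincubated 60 min at room temperature with enzyme, then reactions were started with ATP (125 μM stock, 5× final) and run 60 min at 37 °C. EDTA-containing Eu-anti-phospho-Topo IIα (Thr1342) antibody stopped the reaction; TR-FRET read at 665 nm. pIC50 from 4-parameter fit, converted to pKi via Cheng-Prusoff.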

[2] = tested on: TGF-β-stimulated SMAD3 phosphorylation in BEAS-2B cells; experiment: Cellular ALK5 potency assay, inhibition of TGF-β stimulated pSMAD3 formation in BEAS-2B cells; type: cell-based; settings: Homo sapiens; inhibition of TGF-β stimulated pSMAD3 formation, BEAS-2B cells; read-out: BEAS2B pIC50 (converted)
In short: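 BEAS-2B human lung epithelial cells, seeded overnight, were pre-treated with compound in HBSS/25 mM HEPES/1% BSA for 1 h at 37 °C, then stimulated with TGF-β (final 10 ng/mL) for 30 min. Lysates were assayed for pSMAD3 by AlphaLISA; pIC50 came from dose-dependent signal change versus TGF-β-stimulated untreated cells.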

Ki [1] | SMILES | IC50 [2]
0.0398 to 0.316 nM | Cc1cccc(-c2n[nH]cc2-c2ccc3ncc(N4CCC[C@@H](N(C)C)C4)cc3n2)n1 [Compound 433, (3R)-N,N-dimethyl-1-[6-[3-(6-methyl-2-pyridyl)-1H-pyrazol-4-yl]-1,5-naphthyridin-3-yl]piperidin-3-amine] | 25.1 to 158 nM
< 0.0316 nM | Cc1cccc(-c2[nH]cnc2-c2ccc3ncc(-c4ccc(C(=O)O)nc4)cc3c2)n1 [Compound 541, 5-(6-(5-(6-methylpyridin-2-yl)-1H-imidazol-4-yl)quinolin-3-yl)picolinic Acid] | 1580 to 10000 nM
0.398 to 3.16 nM | Cc1cccc(-c2[nH]cnc2-c2ccc3ncc(-c4nccc(C(=O)O[C@@H]5CCNC5)n4)cc3c2)n1 [Compound 1093, [(3R)-pyrrolidin-3-yl] 2-[6-[5-(6-methyl-2-pyridyl)-1H-imidazol-4-yl]-3-quinolyl]pyrimidine-4-carboxylate] | 200 to 1260 nM
0.0398 to 0.316 nM | Cc1cccc(-c2nc3ccccn3c2-c2ccc3ncc(NCCN4CCN(C(C)C)CC4)cc3c2)n1 [Compound 293, N-(2-(4-isopropylpiperazin-1-yl)ethyl)-6-(2-(6-methylpyridin-2-yl)imidazo[1,2-a]pyridin-3-yl)quinolin-3-amine] | 25.1 to 158 nM
0.0398 to 0.316 nM | Cc1cccc(-c2n[nH]cc2-c2ccc3ncc(-c4cn(Cc5ccccc5)nn4)cc3n2)n1 [Compound 48, 7-(l-benzyltriazol-4-yl)-2-[3-(6-methyl-2-pyridyl)-1H-pyrazol-4-yl]-1,5-naphthyridine] | < 20 nM
0.0398 to 0.316 nM | Cc1cccc(-c2n[nH]cc2-c2ccc3ncc(-c4nc(CN5CCN(C(C)C)CC5)co4)cc3n2)n1 [Compound 246, 4-[(4-isopropylpiperazin-1-yl)methyl]-2-[6-[3-(6-methyl-2-pyridyl)-1H-pyrazol-4-yl]-1,5-naphthyridin-3-yl]oxazole] | 25.1 to 158 nM
0.0398 to 0.316 nM | Cc1cccc(-c2nnn(Cc3ccccc3)c2-c2ccc3ncc(N4CCCNCC4)cc3n2)n1 [Compound 257, 2-[3-benzyl-5-(6-methyl-2-pyridyl)triazol-4-yl]-7-(1,4-diazepan-1-yl)-1,5-naphthyridine] | 200 to 1260 nM
0.0398 to 0.316 nM | Cc1cccc(-c2n[nH]cc2-c2ccc3ncc(NC(=O)CCN4CCN(C(C)C)CC4)cc3n2)n1 [Compound 530, 3-(4-isopropylpiperazin-1-yl)-N-[6-[3-(6-methyl-2-pyridyl)-1H-pyrazol-4-yl]-1,5-naphthyridin-3-yl]propanamide] | 25.1 to 158 nM
0.0398 to 0.316 nM | Cc1cccc(-c2[nH]cnc2-c2ccc3ncc(-c4ccc(C(=O)O[C@@H]5CCN(C)C5)cc4)cc3c2)n1 [Compound 158, [(3R)-1-methylpyrrolidin-3-yl] 4-[6-[5-(6-methyl-2-pyridyl)-1H-imidazol-4-yl]-3-quinolyl]benzoate] | 25.1 to 158 nM
0.0398 to 0.316 nM | Cc1cccc(-c2[nH]cnc2-c2ccc3ncc(-c4ccc(C(=O)OCCN5CC[C@@H](N)C5)cn4)cc3c2)n1 [Compound 1167, 2-[(3R)-3-aminopyrrolidin-1-yl]ethyl 6-[6-[5-(6-methyl-2-pyridyl)-1H-imidazol-4-yl]-3-quinolyl]pyridine-3-carboxylate] | 25.1 to 158 nM
0.0398 to 0.316 nM | CNCCn1cc(-c2cnc3ccc(-c4c(-c5ccc(F)c(C)n5)nc5ccccn45)cc3c2)cn1 [Compound 79, 2-[4-[6-[2-(5-fluoro-6-methyl-2-pyridyl)imidazo[1,2-a]pyridin-3-yl]-3-quinolyl]pyrazol-1-yl]-N-methyl-ethanamine] | 25.1 to 158 nM
0.398 to 3.16 nM | Cc1cccc(-c2[nH]cnc2-c2ccc3ncc(-c4cnc(C(=O)O)nc4)cc3c2)n1 [Compound 1142, 5-[6-[5-(6-methyl-2-pyridyl)-1H-imidazol-4-yl]-3-quinolyl]pyrimidine-2-carboxylic acid] | 1580 to 10000 nM
0.0398 to 0.316 nM | Cc1cccc(-c2nc3ncccn3c2-c2ccc3ncc(-c4cn[nH]c4)cc3n2)n1 [Compound 676, 2-(2-(6-methylpyridin-2-yl)imidazo[1,2-a]pyrimidin-3-yl)-7-(1H-pyrazol-4-yl)-1,5-naphthyridine] | 25.1 to 158 nM
